{"source": "the supplement of paper PMC11208160", "assay": "recombinant UMI read abundance after kanamycin selection (control-corrected) (log10(CPM+1)); higher = more efficient recombination; extreme values may be limits of the assay; sequences stand for … in AGTGCAGAGAAAATCGGCCAGTTTTCTCTGCCTGCAGTCCGCATGCCGTGGGACCCCTTGGGTTCTAACCTGTTGCCTAGATTTATGCAGCGGACTGCCTTTCTCCCAAAGTGATAAACCGG…AGGTTGGTTTCACT; site = the 11-nt donor", "protocol": "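Pooled E. coli donor-specificity screen for the IS621 bridge recombinase. Each library member carries a reprogrammed 11-nt donor and a full-length LE bridge RNA expressed in cis from the natural promoter, with a paired donor-binding loop (8-nt LDG + 4-nt RDG) and a target-binding loop fixed to T5. It is co-electroporated with a T5 target plasmid; recombinase is induced with 0.07 mM IPTG and recombinants are selected on kanamycin. UMIs are counted as CPM, averaged over two biological replicates and corrected by the unselected control. Molecule = full bridge RNA written as DNA, built from the T5 scaffold: LDG = donor specificity nt 1-8, RDG = reverse complement of nt 8-11.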", "data": [{"sequence": "ACATAGACATGGACCGGTTTTCCCGGTAATCCGTATTTGGG (site ACTTAGACTCC)", "values": [{"measurement": "recombinant UMI read abundance (log10)", "result": 0.0189}]}, {"sequence": "ACATATCCATGGACCGGTTTTCCCGGTAATCCGTATTTGAC (site ACAAATCCTGT)", "values": [{"measurement": "recombinant UMI read abundance (log10)", "result": 0}]}, {"sequence": "ACATATCCATGGACCGGTTTTCCCGGTAATCCGTATTTGAC (site ACACATCCTGT)", "values": [{"measurement": "recombinant UMI read abundance (log10)", "result": 0.817}]}, {"sequence": "ACATATCCATGGACCGGTTTTCCCGGTAATCCGTATTTGAC (site ACAGATCCTGT)", "values": [{"measurement": "recombinant UMI read abundance (log10)", "result": 0}]}, {"sequence": "ACATATCCATGGACCGGTTTTCCCGGTAATCCGTATTTGAC (site ACATATCCTGT)", "values": [{"measurement": "recombinant UMI read abundance (log10)", "result": 1.43}]}, {"sequence": "ACATCATCATGGACCGGTTTTCCCGGTAATCCGTATTTGCT (site ACATCATCTAG)", "values": [{"measurement": "recombinant UMI read abundance (log10)", "result": 1.39}]}, {"sequence": "ACATCATCATGGACCGGTTTTCCCGGTAATCCGTATTTGCT (site CGATCATCTAG)", "values": [{"measurement": "recombinant UMI read abundance (log10)", "result": 1.05}]}, {"sequence": "ACATCTGCATGGACCGGTTTTCCCGGTAATCCGTATTTGGT (site ACATCTGCTAC)", "values": [{"measurement": "recombinant UMI read abundance (log10)", "result": 2.1}]}, {"sequence": "ACATCTGCATGGACCGGTTTTCCCGGTAATCCGTATTTGTG (site ACATCTACTCA)", "values": [{"measurement": "recombinant UMI read abundance (log10)", "result": 0.401}]}, {"sequence": "ACATCTGCATGGACCGGTTTTCCCGGTAATCCGTATTTGTG (site ACATCTCCTCA)", "values": [{"measurement": "recombinant UMI read abundance (log10)", "result": 0.0207}]}, {"sequence": "ACATCTGCATGGACCGGTTTTCCCGGTAATCCGTATTTGTG (site ACATCTGCTCA)", "values": [{"measurement": "recombinant UMI read abundance (log10)", "result": 1.37}]}, {"sequence": "ACATCTGCATGGACCGGTTTTCCCGGTAATCCGTATTTGTG (site ACATCTTCTCA)", "values": [{"measurement": "recombinant UMI read abundance (log10)", "result": 0.5}]}, {"sequence": "ACATGAACATGGACCGGTTTTCCCGGTAATCCGTATTTGAG (site ACATGAACTCT)", "values": [{"measurement": "recombinant UMI read abundance (log10)", "result": 2.07}]}, {"sequence": "ACATGAACATGGACCGGTTTTCCCGGTAATCCGTATTTGTC (site ACAAGAACTGA)", "values": [{"measurement": "recombinant UMI read abundance (log10)", "result": 0}]}, {"sequence": "ACATGAACATGGACCGGTTTTCCCGGTAATCCGTATTTGTC (site ACACGAACTGA)", "values": [{"measurement": "recombinant UMI read abundance (log10)", "result": 0.197}]}, {"sequence": "ACATGAACATGGACCGGTTTTCCCGGTAATCCGTATTTGTC (site ACAGGAACTGA)", "values": [{"measurement": "recombinant UMI read abundance (log10)", "result": 0}]}, {"sequence": "ACATGAACATGGACCGGTTTTCCCGGTAATCCGTATTTGTC (site ACATGAACTGA)", "values": [{"measurement": "recombinant UMI read abundance (log10)", "result": 1.57}]}, {"sequence": "ACATGACCATGGACCGGTTTTCCCGGTAATCCGTATTTGCC (site ACATGACCTGG)", "values": [{"measurement": "recombinant UMI read abundance (log10)", "result": 0}]}, {"sequence": "ACATGCGCATGGACCGGTTTTCCCGGTAATCCGTATTTGCA (site ACATGCGCTTG)", "values": [{"measurement": "recombinant UMI read abundance (log10)", "result": 2.86}]}, {"sequence": "ACATGTACATGGACCGGTTTTCCCGGTAATCCGTATTTGGT (site ACATGTACTAC)", "values": [{"measurement": "recombinant UMI read abundance (log10)", "result": 1.73}]}, {"sequence": "ACATTCTCATGGACCGGTTTTCCCGGTAATCCGTATTTGCC (site ACATTCTCTGG)", "values": [{"measurement": "recombinant UMI read abundance (log10)", "result": 1.63}]}, {"sequence": "ACATTGACATGGACCGGTTTTCCCGGTAATCCGTATTTGAA (site ACATTGACTTT)", "values": [{"measurement": "recombinant UMI read abundance (log10)", "result": 1.76}]}, {"sequence": "ACATTTACATGGACCGGTTTTCCCGGTAATCCGTATTTGTG (site ACATATACTCA)", "values": [{"measurement": "recombinant UMI read abundance (log10)", "result": 0.00866}]}, {"sequence": "ACATTTACATGGACCGGTTTTCCCGGTAATCCGTATTTGTG (site ACATCTACTCA)", "values": [{"measurement": "recombinant UMI read abundance (log10)", "result": 0.162}]}, {"sequence": "ACATTTACATGGACCGGTTTTCCCGGTAATCCGTATTTGTG (site ACATGTACTCA)", "values": [{"measurement": "recombinant UMI read abundance (log10)", "result": 0.287}]}, {"sequence": "ACATTTACATGGACCGGTTTTCCCGGTAATCCGTATTTGTG (site ACATTTACTCA)", "values": [{"measurement": "recombinant UMI read abundance (log10)", "result": 0.706}]}, {"sequence": "ACCAACTCATGGACCGGTTTTCCCGGTAATCCGTATTTGCC (site ACCAACTCTGG)", "values": [{"measurement": "recombinant UMI read abundance (log10)", "result": 1.81}]}, {"sequence": "ACCACGCCATGGACCGGTTTTCCCGGTAATCCGTATTTGTA (site ACCACGCCTTA)", "values": [{"measurement": "recombinant UMI read abundance (log10)", "result": 0.0245}]}, {"sequence": "ACCACGCCATGGACCGGTTTTCCCGGTAATCCGTATTTGTA (site CCCACGCCTTA)", "values": [{"measurement": "recombinant UMI read abundance (log10)", "result": 0.143}]}, {"sequence": "ACCACGCCATGGACCGGTTTTCCCGGTAATCCGTATTTGTA (site GCCACGCCTTA)", "values": [{"measurement": "recombinant UMI read abundance (log10)", "result": 0.00875}]}, {"sequence": "ACCACGCCATGGACCGGTTTTCCCGGTAATCCGTATTTGTA (site TCCACGCCTTA)", "values": [{"measurement": "recombinant UMI read abundance (log10)", "result": 0.0133}]}, {"sequence": "ACCAGCTCATGGACCGGTTTTCCCGGTAATCCGTATTTGCT (site ACCAGCTCTAG)", "values": [{"measurement": "recombinant UMI read abundance (log10)", "result": 2.25}]}, {"sequence": "ACCAGGTCATGGACCGGTTTTCCCGGTAATCCGTATTTGTA (site ACCAGGTCTTA)", "values": [{"measurement": "recombinant UMI read abundance (log10)", "result": 2.54}]}, {"sequence": "ACCATATCATGGACCGGTTTTCCCGGTAATCCGTATTTGCA (site ACAGTATCTTG)", "values": [{"measurement": "recombinant UMI read abundance (log10)", "result": 0.937}]}, {"sequence": "ACCATATCATGGACCGGTTTTCCCGGTAATCCGTATTTGCA (site ACCATATCTTG)", "values": [{"measurement": "recombinant UMI read abundance (log10)", "result": 2.3}]}, {"sequence": "ACCCATCCATGGACCGGTTTTCCCGGTAATCCGTATTTGAC (site ACACATCCTGT)", "values": [{"measurement": "recombinant UMI read abundance (log10)", "result": 0.0114}]}]}
